Assay results: patent publication US8664257B2, “Oxygen-substituted 3-heteroaroylamino-propionic acid derivatives and their use as pharmaceuticals” (Sanofi, priority 2010, dated 2014)
Where two headings read alike, the source gives them in different places. Each block holds one molecule with its values, some of them ahead of it.

Target: T1, Recombinant human cathepsin A (Homo sapiens, UniProt P10619)
T1 construct: Recombinant human cathepsin A (residues 29-480, with a C-terminal 10-His tag); 10-His (C); purchased R&D Systems 1049-SE
T1 sequence (P10619 29-312 limits assumed): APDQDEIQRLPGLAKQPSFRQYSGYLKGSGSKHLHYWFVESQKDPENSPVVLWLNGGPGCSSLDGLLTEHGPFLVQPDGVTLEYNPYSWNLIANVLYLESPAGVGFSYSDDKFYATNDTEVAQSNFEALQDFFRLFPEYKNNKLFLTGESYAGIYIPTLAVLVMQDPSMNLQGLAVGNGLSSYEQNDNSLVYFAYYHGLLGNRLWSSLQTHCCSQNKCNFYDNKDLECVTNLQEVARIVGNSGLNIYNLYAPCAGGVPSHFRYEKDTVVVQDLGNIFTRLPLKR
T1 sequence (P10619 327-480 limits assumed): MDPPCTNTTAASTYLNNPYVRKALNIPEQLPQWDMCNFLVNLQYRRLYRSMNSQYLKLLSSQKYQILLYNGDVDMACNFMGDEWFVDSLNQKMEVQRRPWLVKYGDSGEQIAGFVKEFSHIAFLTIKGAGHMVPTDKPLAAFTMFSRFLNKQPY
Assay: Cathepsin A inhibitory activity
Type: biochemical
Procedure: a) Cathepsin A Inhibitory Activity
Recombinant human cathepsin A (residues 29-480, with a C-terminal 10-His tag; R&D Systems, #1049-SE) was proteolytically activated with recombinant human cathepsin L (R&D Systems, #952-CY). Briefly, cathepsin A was incubated at 10 μg/ml with cathepsin L at 1 μg/ml in activation buffer (25 mM 2-(morpholin-4-yl)-ethanesulfonic acid (MES), pH 6.0, containing 5 mM dithiothreitol (DTT)) for 15 min at 37° C. Cathepsin L activity was then stopped by the addition of the cysteine protease inhibitor E-64 (N-(trans-epoxysuccinyl)-L-leucine-4-guanidinobutylamide; Sigma-Aldrich, #E3132; dissolved in activation buffer/DMSO) to a final concentration of 10 μM.
The activated cathepsin A was diluted in assay buffer (25 mM MES, pH 5.5, containing 5 mM DTT) and mixed with the test compound (dissolved in assay buffer containing (v/v) 3% DMSO) or, in the control experiments, with the vehicle in a multiple assay plate. After incubation for 15 min at room temperature, as substrate then bradykinin carrying an N-terminal®Bodipy FL (4,4-difluoro-5,7-dimethyl-4-bora-3a,4a-diaza-s-indacene-3-propionyl) label (JPT Peptide Technologies GmbH; dissolved in assay buffer) was added to the mixture. The final concentration of cathepsin A was 833 ng/ml and the final concentration of labeled bradykinin 2 μM. After incubation for 15 min at room temperature the reaction was stopped by the addition of stop buffer (130 mM 2-(4-(2-hydroxy-ethyl)-piperazin-1-yl)-ethanesulfonic acid, pH 7.4, containing (v/v) 0.013% Triton X-100, 0.13% Coating Reagent 3 (Caliper Life Sciences), 6.5% DMSO and 20 μM ebelactone B (Sigma, # E0886)).
Uncleaved substrate and product were then separated by a microfluidic capillary electrophoresis on a LabChip® 3000 Drug Discovery System (12-Sipper-Chip; Caliper Life Sciences) and quantified by determination of the respective peak areas. Substrate turnover was calculated by dividing product peak area by the sum of substrate and product peak areas, and the enzyme activity and the inhibitory effect of the test compound thus quantified. From the percentage of inhibition of cathepsin A activity observed with the test compound at several concentrations, the inhibitory concentration IC50, i.e. the concentration which effects 50% inhibition of enzyme activity was, calculated.

[1] = read-out: Activity (2): Cathepsin A inhibitory activity, IC50 class
[2] = pharmacological test "Cathepsin A inhibitory activity", IC50 given as class A/B/C, read-out: Activity (2): Cathepsin A inhibitory activity, IC50 class
[3] = read-out: Activity (2): Cathepsin A inhibitory activity (IC50 class)
[4] = recombinant human cathepsin A 833 ng/ml, Bodipy FL-labeled bradykinin 2 μM, pH 5.5, read-out: CATH-A IC50
[5] = recombinant human cathepsin A, read-out: Activity (2): Cathepsin A inhibitory activity, IC50 class

IC50 [3]: 1000 to 30000 nM
IC50 [4]: 4490 nM
Structure (SMILES): COc1ccc(-c2ccccc2)cc1C(CC(=O)O)NC(=O)c1cc(O)n(-c2ccccc2Cl)n1 (stereo not shown) [Example 562, 3-{[1-(2-Chloro-phenyl)-5-hydroxy-1H-pyrazole-3-carbonyl]-amino}-3-(4-methoxy-biphenyl-3-yl)-propionic acid]

IC50 [1]: 100 to 1000 nM
Structure (SMILES): O=C(O)CC(NC(=O)c1cc(O)n(-c2ccc(F)cc2)n1)c1cccc(Cl)c1F (stereo not shown) [Example 361]

IC50 [4]: 86.3 nM
IC50 [5]: < 100 nM
Structure (SMILES): O=C(O)CC(NC(=O)c1cc(O)n(-c2ccc(F)cc2F)n1)c1cc(Cl)ccc1Cl (stereo not shown) [Example 500, 3-(2,5-Dichloro-phenyl)-3-{[1-(2,4-difluoro-phenyl)-5-hydroxy-1H-pyrazole-3-carbonyl]-amino}-propionic acid]

IC50 [4]: 152 nM
IC50 [5]: 100 to 1000 nM
Structure (SMILES): O=C(O)CC(NC(=O)c1cc(O)n(-c2ccc(F)cc2)n1)c1ccc(-c2ccccn2)cc1 (stereo not shown) [Example 527, 3-{[1-(4-Fluoro-phenyl)-5-hydroxy-1H-pyrazole-3-carbonyl]-amino}-3-(4-pyridin-2-yl-phenyl)-propionic acid]

IC50 [3]: 100 to 1000 nM
Structure (SMILES): Cc1ccccc1[C@H](CC(=O)O)NC(=O)c1cc(O)n(-c2cc(F)cc(F)c2)n1 [Example 586]

IC50 [3]: < 100 nM
Structure (SMILES): CCOc1cc(C(=O)N[C@@H](CC(=O)O)c2ccccc2Cl)nn1-c1ccccc1F [Example 717]

IC50 [5]: < 100 nM
Structure (SMILES): COc1cc(C(=O)N[C@@H](CC(=O)N[C@H](C)C(C)C)c2ccccc2C)nn1-c1ccccc1F [Example 939, 1-(2-Fluoro-phenyl)-5-methoxy-1H-pyrazole-3-carboxylic acid [(S)-2-((R)-1,2-dimethyl-propylcarbamoyl)-1-o-tolyl-ethyl]-amide]

IC50 [1]: 100 to 1000 nM
Structure (SMILES): O=C(O)C[C@H](NC(=O)c1cc(O)n(-c2ccc(F)cc2F)n1)c1ccccc1F [Example 387]

IC50 [4]: 145 nM
IC50 [5]: 100 to 1000 nM
Structure (SMILES): Cc1ccc(F)cc1C(CC(=O)O)NC(=O)c1cc(O)n(-c2ccccc2)n1 (stereo not shown) [Example 497, 3-(5-Fluoro-2-methyl-phenyl)-3-[(5-hydroxy-1-phenyl-1H-pyrazole-3-carbonyl)-amino]-propionic acid]

IC50 [3]: < 100 nM
Structure (SMILES): Cc1ccccc1[C@H](CC(=O)O)NC(=O)c1cc(OCc2ccno2)n(-c2ccccc2F)n1 [Example 658]

IC50 [5]: 100 to 1000 nM
Structure (SMILES): O=C(O)C[C@H](NC(=O)c1cc(O)n(-c2cccc(Cl)c2)n1)c1ccccc1F [Example 422]

IC50 [5]: 100 to 1000 nM
Structure (SMILES): COc1cc(C(=O)N[C@@H](CC(=O)Nc2ccn(C)n2)c2ccccc2C)nn1-c1ccccc1F [Example 930, 1-(2-Fluoro-phenyl)-5-methoxy-1H-pyrazole-3-carboxylic acid [(S)-2-(1-methyl-1H-pyrazol-3-ylcarbamoyl)-1-o-tolyl-ethyl]-amide]

IC50 [5]: 100 to 1000 nM
Structure (SMILES): COc1ccc(C(CC(=O)O)NC(=O)c2cc(O)n(-c3cccc(F)c3)n2)c(C)c1 (stereo not shown) [Example 426]

IC50 [3]: 100 to 1000 nM
Structure (SMILES): Cc1ccccc1[C@H](CC(=O)O)NC(=O)c1cc(O)n(-c2c(F)cccc2F)n1 [Example 588]

IC50 [4]: 213 nM
IC50 [5]: 100 to 1000 nM
Structure (SMILES): O=C(O)CC(NC(=O)c1cc(O)n(-c2ccccc2)n1)c1cc(F)ccc1Cl (stereo not shown) [Example 495, 3-(2-Chloro-5-fluoro-phenyl)-3-[(5-hydroxy-1-phenyl-1H-pyrazole-3-carbonyl)-amino]-propionic acid]

The next lines start with the molecule.

Structure (SMILES): CC(C)(C)[C@@H](O)COc1cc(C(=O)N[C@@H](CC(=O)O)c2ccc(Cl)cc2)nn1-c1ccccc1F [Example 828, (S)-3-(4-Chloro-phenyl)-3-{[1-(2-fluoro-phenyl)-5-((R)-2-hydroxy-3,3-dimethyl-butoxy)-1H-pyrazole-3-carbonyl]-amino}-propionic acid]
IC50 [1]: 100 to 1000 nM

Structure (SMILES): COc1cccc([C@H](CC(=O)O)NC(=O)c2cc(O)n(-c3ccccc3)n2)c1OC [Example 170]
IC50 [2]: 100 to 1000 nM

Structure (SMILES): O=C(O)CC(NC(=O)c1cc(O)n(-c2ccccc2)n1)c1cccc(C(F)(F)F)c1 (stereo not shown) [Example 67]
IC50 [1]: 100 to 1000 nM

Structure (SMILES): Cc1cccc([C@H](CC(=O)O)NC(=O)c2cc(O)n(-c3ccccc3Cl)n2)c1 [Example 217]
IC50 [2]: 100 to 1000 nM

Structure (SMILES): O=C(O)C[C@H](NC(=O)c1cc(O)n(-c2ccc(Cl)cc2)n1)c1ccc(Cl)cc1Cl [Example 297]
IC50 [1]: 100 to 1000 nM

Structure (SMILES): Cc1ccccc1[C@H](CC(=O)O)NC(=O)c1cc(O)n(-c2ccccc2Cl)n1 [Example 77]
IC50 [1]: < 100 nM

Structure (SMILES): CC(C)(C)C(=O)COc1cc(C(=O)N[C@@H](CC(=O)O)c2ccccc2Cl)nn1-c1ccccc1F [Example 777, (S)-3-(2-Chloro-phenyl)-3-{[5-(3,3-dimethyl-2-oxo-butoxy)-1-(2-fluoro-phenyl)-1H-pyrazole-3-carbonyl]-amino}-propionic acid]
IC50 [3]: < 100 nM

Structure (SMILES): CC(C)C(C)(O)COc1cc(C(=O)N[C@@H](CC(=O)O)c2cccc(C#N)c2)nn1-c1ccccc1F (stereo partly drawn) [Example 807, (S)-3-(3-Cyano-phenyl)-3-{[1-(2-fluoro-phenyl)-5-(2-hydroxy-2,3-dimethyl-butoxy)-1H-pyrazole-3-carbonyl]-amino}-propionic acid]
IC50 [1]: < 100 nM

Structure (SMILES): CC(C)[C@](C)(O)COc1cc(C(=O)N[C@H](CC(=O)O)Cc2ccc(C#N)cc2)nn1-c1ccccc1F [Example 834, (S)-4-(4-Cyano-phenyl)-3-{[1-(2-fluoro-phenyl)-5-((S)-2-hydroxy-2,3-dimethyl-butoxy)-1H-pyrazole-3-carbonyl]-amino}-butyric acid]
IC50 [1]: 1000 to 30000 nM

Structure (SMILES): CC(C)(C)[C@@](C)(O)COc1cc(C(=O)NC(CC(=O)O)C2CCCCC2)nn1-c1ccccc1F (stereo partly drawn) [Example 820, 3-Cyclohexyl-3-{[1-(2-fluoro-phenyl)-5-((R)-2-hydroxy-2,3,3-trimethyl-butoxy)-1H-pyrazole-3-carbonyl]-amino}-propionic acid]
IC50 [1]: < 100 nM

Structure (SMILES): Cc1ccc(C)c(-n2nc(C(=O)NC(CC(=O)O)c3cccc(OC(C)(C)C)c3)cc2O)c1 (stereo not shown) [Example 7, 3-(3-tert-Butoxy-phenyl)-3-{[1-(2,5-dimethyl-phenyl)-5-hydroxy-1H-pyrazole-3-carbonyl]-amino}-propionic acid]
IC50 [1]: 1000 to 30000 nM

Structure (SMILES): Cc1cc(F)ccc1C(CC(=O)O)NC(=O)c1cc(O)n(-c2ccccc2)n1 (stereo not shown) [Example 85]
IC50 [1]: 100 to 1000 nM

Structure (SMILES): Cc1ccccc1[C@H](CC(=O)O)NC(=O)c1cc(O)n(-c2ccc(F)cc2)n1 [Example 76]
IC50 [1]: < 100 nM

Structure (SMILES): Cc1ccc(C(CC(=O)O)NC(=O)c2cc(O)n(-c3ccc(F)cc3F)n2)c(C)c1 (stereo not shown) [Example 195]
IC50 [2]: 100 to 1000 nM

Structure (SMILES): O=C(O)C[C@H](NC(=O)c1cc(O)n(-c2cccc(F)c2)n1)c1cccc(F)c1 [Example 312]
IC50 [1]: 100 to 1000 nM

Structure (SMILES): N#Cc1ccc([C@H](CC(=O)O)NC(=O)c2cc(O)n(-c3ccccc3Cl)n2)cc1 [Example 112]
IC50 [1]: 100 to 1000 nM

Structure (SMILES): O=C(O)CC(NC(=O)c1cc(O)n(-c2cccc(F)c2)n1)c1cccc(C(F)(F)F)c1Cl (stereo not shown) [Example 323]
IC50 [1]: 100 to 1000 nM

Structure (SMILES): O=C(O)CC(NC(=O)c1cc(O)n(-c2cccc(F)c2)n1)c1cccc2c1OCO2 (stereo not shown) [Example 300]
IC50 [1]: 100 to 1000 nM

Structure (SMILES): CC(C)[C@@](C)(O)COc1cc(C(=O)NC(CC(=O)O)C2CCCCC2)nn1-c1ccccc1F (stereo partly drawn) [Example 786, 3-Cyclohexyl-3-{[1-(2-fluoro-phenyl)-5-((R)-2-hydroxy-2,3-dimethyl-butoxy)-1H-pyrazole-3-carbonyl]-amino}-propionic acid]
IC50 [3]: < 100 nM

Structure (SMILES): O=C(O)C[C@H](NC(=O)c1cc(O)n(-c2cccc(Cl)c2)n1)c1c(F)cccc1F [Example 265]
IC50 [2]: 100 to 1000 nM

Structure (SMILES): O=C(O)CC(NC(=O)c1cc(O)n(-c2cccc(F)c2)n1)c1ccc(-c2cccc(F)c2)cc1 (stereo not shown) [Example 319]
IC50 [1]: 100 to 1000 nM

Structure (SMILES): CCCC(CC(=O)O)NC(=O)c1cc(O)n(-c2cc(C)ccc2C)n1 (stereo not shown) [Example 26]
IC50 [1]: 1000 to 30000 nM

Structure (SMILES): O=C(O)CC(NC(=O)c1cc(O)n(-c2ccc(Cl)cc2)n1)c1ccc(Oc2ccccc2)cc1 (stereo not shown) [Example 294]
IC50 [1]: 1000 to 30000 nM
